Data: patent publication US12268757B2, “Cyclen based compounds, coordination compounds, peptides, pharmaceutical preparation, and use thereof” (USTAV ORGANICKE CHEMIE A BIOCHEMIE AV CR V.V.I., priority 2019, dated 2025)

Experiments:
[1] = Kinetic inertness: acid-assisted decomplexation followed by HPLC; format: physicochemical; conditions: pH ~2.0, 40° C.; for Peak area of intact chelate: TFA 0.08%, UV 280 nm
Protocol: Stability (kinetic inertness) of the Gd(III) building block Gd-3 prepared in Example 4 was tested by following acid-assisted decomplexation by HPLC. Isocratic elution method was used for analysis. Constant concentration of TFA (0.08%) was maintained in the mobile phase (pH ˜2.0), while methanol content was varied to tune the retention time of the analyte. With increasing retention time (i.e. time spent in the acidic medium), more decomplexation should occur and the amount of intact chelate should decrease mono-exponentially (pseudo first-order reaction conditions), while a peak of free chelator should appear in the chromatogram. The HPLC conditions were as follows: column Kinetex C18, 100×3 mm, 2.6 um; column temperature maintained at 40° C.; mobile phase: TFA (constant 0.08% vol.), MeOH (variable), water; flow-rate 0.6 mL/min; UV detection at 280 nm; injection of 2 uL of 0.5 mM sample.

[2] = Relaxivity of Gd(III) chelates; format: physicochemical
Protocol: Relaxivity of Gd(III) chelate Gd-6 and of a peptide Gly-Phe-(Gd-6)-Gly-NH2 have been measured at 40° C. and 0.5 T in 10 mM MOPS buffer pH=7.0. It is apparent from the data that the relaxivity of the peptide, where the Gd-6 is incorporated within the peptide chain, is higher than the relaxivity of a standalone Gd-6.

| Substance | Peak area of intact chelate ([1]; 36% methanol in mobile phase, retention time 6.894 min) [mAU · s] | Peak area of intact chelate ([1]; 37% methanol in mobile phase, retention time 6.072 min) [mAU · s] | Peak area of intact chelate ([1]; 38% methanol in mobile phase, retention time 5.570 min) [mAU · s] | Peak area of intact chelate ([1]; 39% methanol in mobile phase, retention time 5.044 min) [mAU · s] | Peak area of intact chelate ([1]; 40% methanol in mobile phase, retention time 4.632 min) [mAU · s] | Stability (kinetic inertness) under acidic conditions ([1]; with increasing retention time in TFA 0.08% mobile phase) | Relaxivity r1 at 40° C., and 0.5 T ([2]; 10 mM MOPS buffer pH=7.0, calculated r1 = R1/c) [mM⁻¹ s⁻¹] | Relaxation time T1 ([2]; 40° C., 0.5 T, 10 mM MOPS buffer pH=7.0) [ms] |
| --- | --- | --- | --- | --- | --- | --- | --- | --- |
| Gd(III) Complex of 2,2′,2″-(10-((2S,3S,4S)-1-(2-(9H-fluoren-9-yl)acetoxy)-2-carboxy-4-hydroxypyrrolidin-3-yl)-1,4,7,10-tetraazacyclododecane-1,4,7-triyl)triacetic acid [Gd-3] | 690.9 | 686.6 | 688.4 | 685.5 | 681.6 | no decrease in the peak area | – | – |
| Gd(III) Complex of 2,2′,2″-(10-((2S,3S,4S)-2-carboxy-4-hydroxypyrrolidin-3-yl)-1,4,7,10-tetraazacyclododecane-1,4,7-triyl)triacetic acid [Gd-6] | – | – | – | – | – | – | 3.5 | 1562 |
